Experimental findings from paper PMC12595434, “Development of retinoid nuclear receptor pathway antagonists through targeting aldehyde dehydrogenase 1A3” (iScience, 2025) are described below.

One data set in a line: Plasma stability (human). The format is in vitro ADME. The note with it: read-out: Plasma stability T1/2 (human).
In a further data set the test system is mouse T cells. Kind of data set: T cell proliferation (CFSE) co-culture with myeloid cells. The note with it: 1 μM MBE1 treatment of B16F10-ALDH1A3 cells. The format is cell-based. Here is the method:
Next, to simulate paracrine signaling from tumor cells, we collected conditioned media from isogenic B16F10 cells stably expressing either vector or ALDH1A3 and added the media to the myeloid cells prior to culturing with T cells.
Bone marrow derived monocytes were enriched using MACS isolation (#130-100-629) and >95% purity of monocytes was confirmed by staining with Ly6C-PE (Clone# HK1.4; Biolegend 128008). Monocytes were cultured in RPMI1640 at 1M/well in a 6-well plate. 20 ng/ml mGM-CSF (peprotech) and 20 ng/ml mIL-4 (peprotech) were used to differentiate monocytes to monocyte derived dendritic cells (MoDCs). 100 nM atRA or 0.1% DMSO was used to treat the cells. 3 days later, floating cells were collected and 20,000 of them were cocultured with 100,000 CD4^+ T cell labeled with CFSE (Thermo fisher scientific) at 1:5000. T cell proliferation was examined ∼72hrs after the coculture. When conditioned medium was used in differentiating MoDCs, conditioned medium was first collected from 500,000 B16-vector control cells vs. B16-mALDH1A3 cells with or without 1 μM MBE1 treatment cultured in 1.5 mL medium in a 6-well plate for ∼24hrs. Fresh RPMI1640 and conditioned medium were mixed 1:1 before applying to MoDC culture. In parallel, fresh RPMI1640 medium alone is used as a control. […]

The next data set concerns the target T1, MARCKSL1 (Homo sapiens, UniProt P49006).
T1 construct: Treated A375 cells were harvested from 10 × 15 cm plates; endogenous in cells; host or cells: A375 melanoma cells
Nature of the data set: Thermal proteome profiling (TPP) in A375 cells. The note with it: MARCKSL1, 1 uM. In kind it is cell-based.

For another data set, the target named is CCKa (Homo sapiens, UniProt P32238). Kind of data set: Off-target profiling panel. The note with it: read-out: Inhibition by MBE1 at 10 μM (%). The format is binding.
The next data set concerns the target M1 (Homo sapiens, UniProt P11229). Nature of the data set: biochemical. The format is binding. The note with it: read-out: Inhibition by MBE1 at 10 μM (%).
The next data set deals with D1 (Homo sapiens, UniProt P21728). Nature of the data set: Off-target profiling panel. The format is binding. The note with it: read-out: Inhibition by MBE1 at 10 μM (%).
In the next data set the target is 5HT3 (Homo sapiens, UniProt P46098). Nature of the data set: Off-target profiling panel. The format is binding. Conditions: read-out: Inhibition by MBE1 at 10 μM (%).
The target in the next data set is H2 (Homo sapiens, UniProt P25021). Nature of the data set: Off-target profiling panel. The format is binding. Conditions: read-out: Inhibition by MBE1 at 10 μM (%).
In a further data set the target is Beta1 (Homo sapiens, UniProt P08588). Kind of data set: Off-target profiling panel. In kind it is binding. The note with it: read-out: Inhibition by MBE1 at 10 μM (%).
A further data set concerns the target Beta2 (Homo sapiens, UniProt P07550). Kind of data set: Off-target profiling panel. The format is binding. The note with it: read-out: Inhibition by MBE1 at 10 μM (%).
Another data set has as its target nACHR-Alpha7 (Homo sapiens, UniProt P36544). Kind of data set: biochemical. In kind it is binding. The note with it: read-out: Inhibition by MBE1 at 10 μM (%).
Another data set concerns the target COX1 (Homo sapiens, UniProt P23219). Nature of the data set: Off-target profiling panel. In kind it is biochemical. The note with it: read-out: Inhibition by MBE1 at 10 μM (%).
The target of a further data set is COX2 (Homo sapiens, UniProt P35354). Nature of the data set: Off-target profiling panel. The note with it: read-out: Inhibition by MBE1 at 10 μM (%). The format is biochemical.
For the next data set, the system named is AsPC-1 cells. Kind of data set: Metabolomic profiling of treated cell lines (raw metabolite counts). The format is cell-based. Conditions: AsPC-1:MBE, replicates. From the text: Supplement mmc8.xlsx, sheet "Supplement Table 7" | column: AsPC-1:MBE
In the next data set the test system is HaCaT cells. Kind of data set: Dose-titration cytotoxicity analysis. Conditions: 24 hour incubation, highest tested dose 10 μM.
The next data set has as its target T2, purified human ALDH1A3 (Homo sapiens, UniProt P47895).
T2 construct: made in house; host or cells: BL21-DE3 E. coli
Kind of data set: Nanoscale differential scanning fluorimetry (DSF). The format is binding. Conditions: 10 and 100 μM. For orientation: Differential scanning fluorimetry follows unfolding on heating by fluorescence.

Data set [1] relates to panel of cancer cell lines. Nature of the data set: 48 h proliferation, WST-8 tetrazolium dye assay. The format is cell-based, human. The note with it: 48-h proliferation assays, 23 cell lines. For orientation: Formazan colour is commonly taken as a measure of viable cells.
The test system of a further data set is T3-MCA sarcoma. Kind of data set: T3-MCA syngeneic tumor growth. In kind it is in vivo, mouse. The note with it: MBE1.5-formulated diet 270 ppm (equivalent 40 mg/kg per day), by day 7 of treatment. Here is the method: A considerable number of research efforts have attempted to generate retinoid nuclear receptor pathway antagonists, whether through targeting retinoid transport, the atRA synthetic enzymes, or by creating inverse agonists of the RAR/RXR nuclear receptors. […] Thus, mice were injected subcutaneously with T3-MCA sarcoma cells and were randomized by tumor size once tumors became palpable. One group received MBE1.5-formulated diet at 270 ppm (equivalent dose of 40 mg/kg body mass per day based on average food consumption), and the other group received control diet.
No statistical method was used to predetermine the number of animals needed across experiments. Xenograft experiments were conducted using 50k cells suspended in 10 μL PBS for mammary gland injection or 100k cells in 100 μL PBS for subcutaneous injection. Bioluminescent imaging (BLI) and tumor measurement was conducted as previously described.[78] IV/PO pharmacokinetic analysis of MBE1 and MBE1.5 was conducted on male CD-1 mice from Vital River that had been fasted for 4 h. Sampling was performed from either jugular puncture or tail-vein sampling using BD yellow-capped tubes for serum analysis or K2-EDTA tubes for hematology. Medicated feed was manufactured at Envigo using MBE1.5 powder with a final concentration of 270 ppm. Medicated diet was stored at 4°C for no longer than 6 months at a time.

Molecules are shown by their SMILES. Values joined by “and” are separate entries in the source; they are usually repeats but may differ in a detail not shown here. Equal entries are not always repeated. Where only a bound is given, the exact number is not on record here.

H2, sequence (P25021 whole entry): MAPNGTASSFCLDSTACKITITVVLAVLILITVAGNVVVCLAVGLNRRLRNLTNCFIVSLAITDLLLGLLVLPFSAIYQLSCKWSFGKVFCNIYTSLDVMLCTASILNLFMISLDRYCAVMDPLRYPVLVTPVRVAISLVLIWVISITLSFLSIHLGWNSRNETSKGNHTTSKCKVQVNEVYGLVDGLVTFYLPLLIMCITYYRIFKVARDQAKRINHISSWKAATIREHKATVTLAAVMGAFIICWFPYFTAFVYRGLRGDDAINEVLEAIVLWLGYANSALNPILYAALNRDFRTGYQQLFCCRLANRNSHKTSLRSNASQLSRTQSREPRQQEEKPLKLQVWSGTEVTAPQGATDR
5HT3, sequence (P46098 24-478): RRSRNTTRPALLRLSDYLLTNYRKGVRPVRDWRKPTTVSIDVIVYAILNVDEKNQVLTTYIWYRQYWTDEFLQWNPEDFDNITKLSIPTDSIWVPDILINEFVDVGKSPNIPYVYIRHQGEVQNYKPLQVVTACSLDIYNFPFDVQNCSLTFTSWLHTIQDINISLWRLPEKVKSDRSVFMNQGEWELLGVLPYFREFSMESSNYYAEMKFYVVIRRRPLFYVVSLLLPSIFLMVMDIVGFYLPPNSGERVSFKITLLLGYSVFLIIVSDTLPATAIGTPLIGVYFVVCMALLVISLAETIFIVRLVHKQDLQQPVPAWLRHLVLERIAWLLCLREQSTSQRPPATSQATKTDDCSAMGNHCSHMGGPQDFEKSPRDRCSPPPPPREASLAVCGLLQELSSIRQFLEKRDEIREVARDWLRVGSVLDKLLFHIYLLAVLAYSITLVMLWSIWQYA
T2 sequence (P47895 whole entry): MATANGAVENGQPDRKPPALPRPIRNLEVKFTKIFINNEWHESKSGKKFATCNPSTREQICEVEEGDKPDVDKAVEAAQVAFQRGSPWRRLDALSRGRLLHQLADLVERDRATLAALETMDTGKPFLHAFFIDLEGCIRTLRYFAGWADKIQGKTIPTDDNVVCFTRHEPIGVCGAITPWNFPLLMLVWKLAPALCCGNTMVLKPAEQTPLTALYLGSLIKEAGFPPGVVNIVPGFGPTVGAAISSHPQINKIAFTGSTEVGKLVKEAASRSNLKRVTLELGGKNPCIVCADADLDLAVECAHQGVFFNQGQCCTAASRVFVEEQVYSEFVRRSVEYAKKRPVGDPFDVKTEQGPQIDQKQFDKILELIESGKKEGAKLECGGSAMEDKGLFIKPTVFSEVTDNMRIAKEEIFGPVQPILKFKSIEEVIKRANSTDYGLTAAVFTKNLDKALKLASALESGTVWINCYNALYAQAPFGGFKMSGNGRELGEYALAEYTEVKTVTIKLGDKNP
COX1, sequence (P23219 24-599): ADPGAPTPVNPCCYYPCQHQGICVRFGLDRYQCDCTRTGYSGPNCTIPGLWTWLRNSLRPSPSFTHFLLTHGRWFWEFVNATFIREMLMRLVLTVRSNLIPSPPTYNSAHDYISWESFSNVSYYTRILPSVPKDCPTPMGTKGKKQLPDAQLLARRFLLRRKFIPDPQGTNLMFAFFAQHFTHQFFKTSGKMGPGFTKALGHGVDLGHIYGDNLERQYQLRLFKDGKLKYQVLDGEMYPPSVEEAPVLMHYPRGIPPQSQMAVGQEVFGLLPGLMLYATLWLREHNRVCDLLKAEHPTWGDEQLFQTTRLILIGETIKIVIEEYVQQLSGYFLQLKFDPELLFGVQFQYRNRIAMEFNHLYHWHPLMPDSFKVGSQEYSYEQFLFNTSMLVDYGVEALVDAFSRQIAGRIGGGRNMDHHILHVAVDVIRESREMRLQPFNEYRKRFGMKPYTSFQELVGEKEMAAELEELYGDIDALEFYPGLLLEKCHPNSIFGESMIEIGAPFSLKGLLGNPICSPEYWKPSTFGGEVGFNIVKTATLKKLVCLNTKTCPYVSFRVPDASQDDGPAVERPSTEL
CCKa, sequence (P32238 whole entry): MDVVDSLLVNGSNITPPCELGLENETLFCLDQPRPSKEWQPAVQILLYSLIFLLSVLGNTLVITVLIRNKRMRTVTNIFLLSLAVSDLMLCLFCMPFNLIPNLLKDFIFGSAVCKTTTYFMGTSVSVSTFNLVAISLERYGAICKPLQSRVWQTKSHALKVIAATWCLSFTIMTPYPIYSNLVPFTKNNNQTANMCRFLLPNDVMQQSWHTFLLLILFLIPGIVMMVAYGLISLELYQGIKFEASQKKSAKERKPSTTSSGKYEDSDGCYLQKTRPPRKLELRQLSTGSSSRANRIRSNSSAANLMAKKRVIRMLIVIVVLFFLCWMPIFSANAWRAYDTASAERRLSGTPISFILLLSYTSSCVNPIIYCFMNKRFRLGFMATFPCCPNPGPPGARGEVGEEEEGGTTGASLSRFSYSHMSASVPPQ
T1 sequence (P49006 whole entry): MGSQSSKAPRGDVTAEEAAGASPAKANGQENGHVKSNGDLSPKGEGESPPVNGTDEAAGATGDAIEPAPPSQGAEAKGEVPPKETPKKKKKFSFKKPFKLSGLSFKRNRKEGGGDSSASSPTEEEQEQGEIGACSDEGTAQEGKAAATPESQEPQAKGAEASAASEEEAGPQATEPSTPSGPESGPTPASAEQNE
COX2, sequence (P35354 18-604): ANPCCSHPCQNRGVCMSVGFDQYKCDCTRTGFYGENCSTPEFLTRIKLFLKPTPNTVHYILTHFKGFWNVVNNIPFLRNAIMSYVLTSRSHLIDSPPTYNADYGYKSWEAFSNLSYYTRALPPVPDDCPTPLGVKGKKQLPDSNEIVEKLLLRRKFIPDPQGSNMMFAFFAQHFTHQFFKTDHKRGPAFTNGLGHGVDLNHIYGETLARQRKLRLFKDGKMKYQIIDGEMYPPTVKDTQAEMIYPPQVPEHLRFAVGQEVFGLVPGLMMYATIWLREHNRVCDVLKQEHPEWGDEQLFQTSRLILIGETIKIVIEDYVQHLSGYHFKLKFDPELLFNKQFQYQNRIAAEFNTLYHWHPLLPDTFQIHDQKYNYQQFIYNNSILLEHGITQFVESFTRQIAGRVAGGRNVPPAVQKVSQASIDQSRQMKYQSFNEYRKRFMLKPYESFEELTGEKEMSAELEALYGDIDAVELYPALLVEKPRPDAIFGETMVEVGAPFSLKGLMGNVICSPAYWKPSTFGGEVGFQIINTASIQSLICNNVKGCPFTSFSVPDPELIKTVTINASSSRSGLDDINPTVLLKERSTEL
Beta1, sequence (P08588 whole entry): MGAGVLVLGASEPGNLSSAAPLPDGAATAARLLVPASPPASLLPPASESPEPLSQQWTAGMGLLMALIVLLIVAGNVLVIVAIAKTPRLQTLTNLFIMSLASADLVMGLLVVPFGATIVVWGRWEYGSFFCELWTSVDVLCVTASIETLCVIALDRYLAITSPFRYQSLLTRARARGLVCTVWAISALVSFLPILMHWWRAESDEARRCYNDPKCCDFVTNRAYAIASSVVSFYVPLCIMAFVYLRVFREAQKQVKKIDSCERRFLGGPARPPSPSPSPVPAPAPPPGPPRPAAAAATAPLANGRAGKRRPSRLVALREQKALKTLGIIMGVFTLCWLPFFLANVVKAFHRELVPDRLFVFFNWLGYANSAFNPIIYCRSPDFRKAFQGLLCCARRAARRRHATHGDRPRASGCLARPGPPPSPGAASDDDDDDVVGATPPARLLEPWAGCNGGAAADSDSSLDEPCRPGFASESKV
D1, sequence (P21728 whole entry): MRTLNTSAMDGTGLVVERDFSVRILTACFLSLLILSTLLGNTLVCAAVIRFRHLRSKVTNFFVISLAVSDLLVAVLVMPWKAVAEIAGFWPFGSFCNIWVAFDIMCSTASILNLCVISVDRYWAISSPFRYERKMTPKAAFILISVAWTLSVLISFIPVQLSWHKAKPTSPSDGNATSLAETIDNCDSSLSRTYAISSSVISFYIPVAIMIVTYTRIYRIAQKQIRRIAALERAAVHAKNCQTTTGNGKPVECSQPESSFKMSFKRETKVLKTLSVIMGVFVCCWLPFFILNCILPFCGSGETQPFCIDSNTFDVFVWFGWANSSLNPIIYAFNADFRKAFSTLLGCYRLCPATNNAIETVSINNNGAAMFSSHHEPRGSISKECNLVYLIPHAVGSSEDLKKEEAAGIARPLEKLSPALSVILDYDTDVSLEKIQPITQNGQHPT
Beta2, sequence (P07550 whole entry): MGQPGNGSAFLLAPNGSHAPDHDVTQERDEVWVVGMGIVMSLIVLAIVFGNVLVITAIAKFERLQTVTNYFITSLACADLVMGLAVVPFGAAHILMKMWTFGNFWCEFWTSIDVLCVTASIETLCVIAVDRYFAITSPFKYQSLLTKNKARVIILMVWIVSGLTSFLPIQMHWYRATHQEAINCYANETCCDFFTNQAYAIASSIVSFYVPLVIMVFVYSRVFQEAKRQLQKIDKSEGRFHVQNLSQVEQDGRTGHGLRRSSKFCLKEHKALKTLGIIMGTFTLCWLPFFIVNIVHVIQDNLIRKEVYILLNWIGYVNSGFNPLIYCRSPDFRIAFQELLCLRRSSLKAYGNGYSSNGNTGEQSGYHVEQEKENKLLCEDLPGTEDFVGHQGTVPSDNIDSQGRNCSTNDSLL
nACHR-Alpha7, sequence (P36544 23-502): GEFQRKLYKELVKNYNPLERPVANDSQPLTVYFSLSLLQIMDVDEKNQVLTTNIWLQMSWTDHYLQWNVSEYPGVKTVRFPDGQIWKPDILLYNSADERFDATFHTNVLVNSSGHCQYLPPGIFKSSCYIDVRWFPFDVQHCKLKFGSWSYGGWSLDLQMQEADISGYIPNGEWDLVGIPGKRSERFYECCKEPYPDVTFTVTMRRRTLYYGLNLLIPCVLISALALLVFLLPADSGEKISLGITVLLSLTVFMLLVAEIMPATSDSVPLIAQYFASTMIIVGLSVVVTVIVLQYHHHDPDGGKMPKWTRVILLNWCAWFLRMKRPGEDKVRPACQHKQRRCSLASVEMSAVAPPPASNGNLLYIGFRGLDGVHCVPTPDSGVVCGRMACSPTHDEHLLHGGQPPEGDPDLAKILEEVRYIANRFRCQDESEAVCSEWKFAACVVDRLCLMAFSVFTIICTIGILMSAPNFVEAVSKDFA

The term inhibition denotes the change of the read-out against control, counted positive when it falls. Consider `CCc1cnccc1C(=O)Nc1cc2c(cc1F)NC(=O)CC2` [MBE1, 3-ethyl-N-(7-fluoro-2-oxo-3,4-dihydro-1H-quinolin-6-yl)pyridine-4-carboxamide], for which the half-life in “Plasma stability (human)” was over 4.82 h. The “T cell proliferation block by B16F10-ALDH1A3 conditioned media (in words)” value in the data set with mouse T cells is listed as “proliferation block disappeared”. Further, the “1uM MBE1 Tm” value on MARCKSL1 came to 64. For the same compound, the inhibition at 10 µM at CCKa was -1.45%. Also, the inhibition at 10 µM at M1 is -7.68%. For the same compound, the inhibition at 10 µM at D1 was -16.4%. Further, the inhibition at 10 µM at 5HT3 is -18.6%. In addition, the inhibition at 10 µM on H2 is 4.29%. Also, the inhibition at 10 µM at Beta1 was -8.49%. For the same compound, the inhibition at 10 µM at Beta2 worked out at 3.23%. The inhibition at 10 µM on nACHR-Alpha7 is -9.85%. Also, the inhibition at 10 µM at COX1 was -2.65%. Besides, the inhibition at 10 µM at COX2 is -1.05%. Also, in the data set with AsPC-1 cells, the “Raw counts of 2-Hydroxybutyric acid” value was 407527 and 409338 and 391016; the “Raw counts of 3-Hydroxybutyric acid” value is 935326 and 777510 and 811161; the “Raw counts of 3-Phosphoglycerate” value is 27569.7 and 29653.8 and 33692.4; the “Raw counts of 3-Phosphoserine” value was determined as 0. Besides, in the data set with AsPC-1 cells, the “Raw counts of 6-Phosphogluconate” value is 2283.86 and 2700.65 and 2716.13; the “Raw counts of Carbamoyl phosphate” value was 77497 and 91797.1 and 80487.7; the “Raw counts of Citrulline” value is 767940 and 822514 and 761078; the “Raw counts of Cytidine” value is 42547.3 and 33951.9 and 31568.3. For the same compound, in the data set on AsPC-1 cells, the “Raw counts of Hypoxanthine” value was 6602890 and 6349420 and 6667202; the “Raw counts of Isoleucine” value was 8463643 and 7729570 and 8029520; the “Raw counts of Lactate” value was 2.84E+08 and 2.40E+08 and 2.49E+08; the “Raw counts of Leucine” value was 1.56E+07 and 1.48E+07 and 1.55E+07. Moreover, in the data set with AsPC-1 cells, the “Raw counts of Methionine” value is 3519797 and 3454298 and 3337800; the “Raw counts of N-acetyl-glutamine” value was 14303 and 11323.4 and 0; the “Raw counts of Orotate” value is 62546.3 and 65785 and 58119.5; the “Raw counts of Phenylalanine” value is 9403483 and 9101309 and 9197218. Moreover, in the data set with AsPC-1 cells, the “Raw counts of Phosphoenolpyruvate” value was 23786.2 and 24455.1 and 27616; the “Raw counts of Pyridoxine” value was 1078977 and 951150 and 1075404; the “Raw counts of Pyruvate” value was 3.56E+07 and 3.45E+07 and 3.67E+07; the “Raw counts of Ribitol” value was 1829543 and 1600997 and 2014101. In addition, in the data set with AsPC-1 cells, the “Raw counts of Sorbitol” value was 2.37E+07 and 2.26E+07 and 2.62E+07; the “Raw counts of Taurine” value was 5285632 and 4263876 and 4897168; the “Raw counts of Tryptophan” value was 2709598 and 2662217 and 2730749; the “Raw counts of Tyrosine” value was 5411932 and 5220208 and 5418708. For the same compound, in the data set with AsPC-1 cells, the “Raw counts of UDP” value was 31905 and 38800.3 and 38337.9; the “Raw counts of Uracil” value was 1743558 and 1602379 and 1692033; the “Raw counts of Uridine” value is 1071683 and 996648 and 1101788; the “Raw counts of Valine” value was 1.20E+07 and 1.17E+07 and 1.23E+07. In the data set with AsPC-1 cells, the “Raw counts of Xanthine” value is 6452708 and 5994216 and 6427826. For the same compound, the “nonspecific cytotoxicity (in words)” value with HaCaT cells is “nontoxic”.

For the compound `CCc1ccccc1C(=O)Nc1cc2c(cc1F)NC(=O)CC2` [MBE1.5, 2-ethyl-N-(7-fluoro-2-oxo-3,4-dihydro-1H-quinolin-6-yl)benzamide], on purified human ALDH1A3, the “thermal stabilization of purified ALDH1A3” value was over 8.5 °C. Further, the “effect on growth or survival (in words)” value in data set [1] is given as “no detectable effect”. Also, in the data set with T3-MCA sarcoma, the “tumor growth (in words)” value is reported as “dramatically reduced tumor growth”.
